Type in all cases: cell-based
Experiment [1] has as its target Transient receptor potential cation channel subfamily M member 8 (Rattus norvegicus) (UniProt Q8R455). Put plainly: Agonist activity at rat TRPM8 expressed in HEK293 cells assessed as induction of intracellular Ca2+ level by Fluo-4-AM dye based spectrofluorimetry relative to 4 uM ionomycin.
Experiment [2] deals with T1, Transient receptor potential cation channel subfamily M member 8 (Rattus norvegicus, UniProt Q8R455). Put plainly: Antagonist activity against rat TRPM8 expressed in HEK293 cells assessed as inhibition of icilin-induced intracellular Ca2+ level pre-treated 5 mins before icilin stimulation by Fluo-4-AM dye based spectrofluorimetry.
In experiment [3] the target is T1, Transient receptor potential cation channel subfamily M member 8. Put plainly: Agonist activity at rat TRPM8 expressed in HEK293 cells assessed as induction of intracellular Ca2+ level by Fluo-4-AM dye based spectrofluorimetry.
The target of experiment [4] is Transient receptor potential cation channel subfamily V member 1 (Homo sapiens, UniProt Q8NER1). Put plainly: Antagonist activity against human TRPV1 expressed in HEK293 cells assessed as inhibition of capsaicin-induced intracellular Ca2+ level pre-treated 5 mins before capsaicin stimulation by Fluo-4-AM dye based spectrofluorimetry.

Where only a bound is given, the exact number is not on record here.

Chain of Transient receptor potential cation channel subfamily V member 1 (Q8NER1 whole entry): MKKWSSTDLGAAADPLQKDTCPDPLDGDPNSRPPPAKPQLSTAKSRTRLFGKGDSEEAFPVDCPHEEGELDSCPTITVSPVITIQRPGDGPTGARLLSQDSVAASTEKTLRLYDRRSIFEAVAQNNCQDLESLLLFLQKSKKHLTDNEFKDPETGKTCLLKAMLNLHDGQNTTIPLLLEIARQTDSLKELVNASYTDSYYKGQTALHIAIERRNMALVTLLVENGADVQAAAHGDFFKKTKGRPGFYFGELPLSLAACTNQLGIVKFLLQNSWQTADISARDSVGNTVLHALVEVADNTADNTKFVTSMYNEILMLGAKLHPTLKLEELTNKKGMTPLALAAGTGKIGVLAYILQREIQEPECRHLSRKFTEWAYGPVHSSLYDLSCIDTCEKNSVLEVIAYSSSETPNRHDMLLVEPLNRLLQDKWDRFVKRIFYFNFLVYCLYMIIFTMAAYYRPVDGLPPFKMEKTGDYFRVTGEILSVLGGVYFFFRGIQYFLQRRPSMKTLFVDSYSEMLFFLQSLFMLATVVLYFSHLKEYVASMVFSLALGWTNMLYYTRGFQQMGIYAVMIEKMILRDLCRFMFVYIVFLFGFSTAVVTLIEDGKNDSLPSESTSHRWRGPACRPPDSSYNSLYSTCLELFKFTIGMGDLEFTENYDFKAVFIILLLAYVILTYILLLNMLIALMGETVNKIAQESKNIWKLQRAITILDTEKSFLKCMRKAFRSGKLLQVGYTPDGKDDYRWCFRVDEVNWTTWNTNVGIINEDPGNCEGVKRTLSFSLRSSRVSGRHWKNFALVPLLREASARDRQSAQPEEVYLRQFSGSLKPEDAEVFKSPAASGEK
Chain of Transient receptor potential cation channel subfamily M member 8 (Rattus norvegicus) (Q8R455 whole entry, looked up): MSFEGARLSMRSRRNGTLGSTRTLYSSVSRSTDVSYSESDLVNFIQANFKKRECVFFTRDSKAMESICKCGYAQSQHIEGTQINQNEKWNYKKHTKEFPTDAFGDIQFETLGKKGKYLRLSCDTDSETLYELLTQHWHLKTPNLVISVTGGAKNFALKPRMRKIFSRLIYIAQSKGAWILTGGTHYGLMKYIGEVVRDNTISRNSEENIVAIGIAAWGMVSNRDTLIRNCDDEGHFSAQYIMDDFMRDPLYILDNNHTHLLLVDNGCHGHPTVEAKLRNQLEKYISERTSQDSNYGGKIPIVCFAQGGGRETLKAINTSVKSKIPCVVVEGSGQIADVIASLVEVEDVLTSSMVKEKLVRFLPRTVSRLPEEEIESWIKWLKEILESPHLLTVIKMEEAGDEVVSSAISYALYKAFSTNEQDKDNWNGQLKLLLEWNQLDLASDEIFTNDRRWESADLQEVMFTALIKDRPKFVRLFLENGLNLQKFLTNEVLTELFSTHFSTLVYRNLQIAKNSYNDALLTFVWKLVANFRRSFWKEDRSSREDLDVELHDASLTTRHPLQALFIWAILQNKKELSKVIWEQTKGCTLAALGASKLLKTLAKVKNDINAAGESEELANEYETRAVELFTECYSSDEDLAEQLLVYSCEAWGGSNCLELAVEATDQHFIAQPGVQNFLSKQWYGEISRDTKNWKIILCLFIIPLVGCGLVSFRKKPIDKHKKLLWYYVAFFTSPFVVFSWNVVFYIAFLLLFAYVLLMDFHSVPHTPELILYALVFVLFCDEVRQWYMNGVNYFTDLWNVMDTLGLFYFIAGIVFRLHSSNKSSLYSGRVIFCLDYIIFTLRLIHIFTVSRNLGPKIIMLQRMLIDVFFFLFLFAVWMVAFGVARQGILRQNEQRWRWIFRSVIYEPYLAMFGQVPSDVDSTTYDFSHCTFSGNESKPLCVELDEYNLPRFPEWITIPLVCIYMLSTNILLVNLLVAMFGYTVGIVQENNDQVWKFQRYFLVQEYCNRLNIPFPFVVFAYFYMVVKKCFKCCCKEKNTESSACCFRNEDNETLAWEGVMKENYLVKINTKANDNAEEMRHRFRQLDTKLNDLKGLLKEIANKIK
T1 sequence (Q8R455 whole entry): as the sequence (Q8R455 whole entry, looked up) above

As a reminder, the IC50 is the midpoint of a concentration-inhibition curve. On to `CS(=O)(=O)Nc1cccc(-n2cc(-c3cccc([N+](=O)[O-])c3)[nH]c2=O)c1`, for which, in experiment [1], the Efficacy was below 10%. The IC50 in experiment [2] was determined as 26 µM.
Broadly, the EC50 is the concentration giving half of the maximal effect. Regarding `O=C1NC(c2cccc([N+](=O)[O-])c2)=CCN1c1ccccc1Cl`, the Efficacy in experiment [1] is 41.8%. Moreover, the 50% effective concentration (EC50) in experiment [3] was 0.89 µM. Besides, the IC50 in experiment [2] stood at 0.95 µM.
`O=C1NC(c2ccc([N+](=O)[O-])cc2)=CCN1c1ccccc1O`: the Efficacy in experiment [1] was below 10%. Besides, the IC50 in experiment [2] came out at 5.7 µM.
On the same counts, the results for `O=c1[nH]c(-c2cccc([N+](=O)[O-])c2)cn1-c1ccccc1O` are below 10% and 3.5 µM.
On the same counts, the results for `O=C1NC(c2cccc([N+](=O)[O-])c2)=CCN1c1cccc(CO)c1` are below 10% and 15.7 µM.
For `O=C1NC(c2ccc([N+](=O)[O-])cc2)=CCN1c1cccc(O)c1` the same measures were below 10% and 10.9 µM.
Consider `O=C(/C=C/c1cccc([N+](=O)[O-])c1)Nc1cccc(Cl)c1`, for which the IC50 in experiment [2] came out at 0.17 µM; in experiment [4], 7.1 µM.
On the same counts, the results for `O=C(/C=C/c1cccc([N+](=O)[O-])c1)Nc1cccc(I)c1` are 0.073 µM and 1.2 µM.
Take `COc1ccccc1N1CC2=C(NC1=O)c1ccccc1CC2`: the Efficacy in experiment [1] is below 10%. The IC50 in experiment [2] was 6.6 µM.
As to `O=C1NC(c2cccc([N+](=O)[O-])c2)=CCN1c1cccc(Br)c1`, the Efficacy in experiment [1] was 47%. In experiment [3], the concentration giving a half-maximal response (EC50) amounted to 0.6 µM. The IC50 in experiment [2] is 1.5 µM.
As for `CC(C)c1ccccc1NC(=O)/C=C/c1cccc([N+](=O)[O-])c1`, the results for the IC50 in experiment [2] and in experiment [4] were 6.1 µM and above 10 µM, respectively.
On to `O=C1NC(c2cccc([N+](=O)[O-])c2)=CCN1c1ccccc1Br`, for which the Efficacy in experiment [1] was found to be 48.2%. In experiment [3], the EC50 is 0.62 µM. In experiment [2], the IC50 is 1.03 µM.
On the same counts, the results for `COc1ccccc1N1CC=C(c2cccc([N+](=O)[O-])c2)NC1=O` are 18.5%, 1.1 µM and 8.3 µM.
For `Cc1ccccc1NC(=O)/C=C/c1cccc([N+](=O)[O-])c1`, the IC50 in experiment [2] is 2 µM; in experiment [4], above 10 µM.
For `COc1cccc(NC(=O)/C=C/c2cccc([N+](=O)[O-])c2)c1` the same measures were 1.1 µM and 2.1 µM.
On the same counts, the results for `CS(=O)(=O)Nc1ccccc1NC(=O)/C=C/c1cccc([N+](=O)[O-])c1` are above 10 µM and above 10 µM.
In the case of `NC(=O)c1ccccc1N1CC=C(c2ccc([N+](=O)[O-])cc2)NC1=O`, the Efficacy in experiment [1] was below 10%. Also, the IC50 in experiment [2] was found to be 11.4 µM.
On to `O=C1NC(c2cccc([N+](=O)[O-])c2)=CCN1c1cccc(O)c1`, for which, in experiment [1], the Efficacy turned out to be 62%. For the same compound, the EC50 in experiment [3] was 1.7 µM. Moreover, the IC50 in experiment [2] stood at 1.5 µM.
Consider `O=C1NC(c2cccc([N+](=O)[O-])c2)=CCN1c1ccccc1I`, for which the Efficacy in experiment [1] worked out at 52.7%. The EC50 in experiment [3] was found to be 1.2 µM. In addition, in experiment [2], the IC50 turned out to be 3.2 µM.
In the case of `Cc1ccc(O)c(N2CC=C(c3ccc([N+](=O)[O-])cc3)NC2=O)c1`, the Efficacy in experiment [1] is below 10%. In addition, the IC50 in experiment [2] came to 16.9 µM.
On the same counts, the results for `O=C1NC(c2cccc([N+](=O)[O-])c2)=CCN1c1ccccc1O` [ICILLIN] are 75.1% and 0.058 µM.
`O=C1NC(c2cccc([N+](=O)[O-])c2)=CCN1c1cccc(Cl)c1`: the Efficacy in experiment [1] stood at 45.6%. Also, the EC50 in experiment [3] is 1.5 µM. For the same compound, the IC50 in experiment [2] amounted to 4.4 µM.
Consider `O=C(/C=C/c1cccc([N+](=O)[O-])c1)Nc1cccc(O)c1`, for which the IC50 in experiment [2] and in experiment [4] was above 10 µM throughout.
Regarding `Cc1ccc(N2CC=C(c3cccc([N+](=O)[O-])c3)NC2=O)c(O)c1`, the Efficacy in experiment [1] was determined as 46%. Besides, the EC50 in experiment [3] was determined as 1.2 µM. For the same compound, in experiment [2], the IC50 stood at 1.4 µM.
Take `Cc1ccc(O)c(N2CC=C(c3cccc([N+](=O)[O-])c3)NC2=O)c1`: in experiment [1], the Efficacy is 69.4%. Further, in experiment [3], the EC50 worked out at 0.14 µM. Also, in experiment [2], the IC50 is 0.26 µM.
As for `O=C1NC2=C(CCc3ccccc32)CN1c1ccccc1O`, the Efficacy in experiment [1] was below 10%. The IC50 in experiment [2] was 5.7 µM.
As for `COc1cccc(N2CC=C(c3cccc([N+](=O)[O-])c3)NC2=O)c1`, the Efficacy in experiment [1] stood at 57.5%. In experiment [3], the EC50 worked out at 0.13 µM. Also, in experiment [2], the IC50 is 0.24 µM.
For `COc1ccccc1NC(=O)/C=C/c1cccc([N+](=O)[O-])c1`, the IC50 was determined as 1.8 µM in experiment [2] and 10.7 µM in experiment [4].
On to `O=C(/C=C/c1cccc([N+](=O)[O-])c1)Nc1ccccc1I`, for which the IC50 in experiment [2] is 1.05 µM; in experiment [4], above 10 µM.
As to `O=C1NC(c2cccc([N+](=O)[O-])c2)=CCN1c1ccccc1F`, in experiment [1], the Efficacy was below 10%. Moreover, in experiment [2], the IC50 worked out at 8.7 µM.
Consider `COc1cccc(-n2cc(-c3cccc([N+](=O)[O-])c3)[nH]c2=O)c1`, for which the Efficacy in experiment [1] was below 10%. In addition, in experiment [2], the IC50 amounted to 33.9 µM.
On to `NC(=O)c1ccccc1N1CC=C(c2cccc([N+](=O)[O-])c2)NC1=O`, for which, in experiment [1], the Efficacy came out at 47.2%. Moreover, the EC50 in experiment [3] was 15.4 µM. Also, in experiment [2], the IC50 stood at 8.3 µM.
As to `O=C(/C=C/c1cccc([N+](=O)[O-])c1)Nc1ccccc1Br`, the results for the IC50 in experiment [2] and in experiment [4] were 1.5 µM and above 10 µM, respectively.
Consider `O=C1NC2=C(CCc3c2cccc3[N+](=O)[O-])CN1c1ccccc1O`, for which, in experiment [1], the Efficacy is below 10%. In experiment [2], the concentration for half-maximal inhibition (IC50) is 3.1 µM.
On the same counts, the results for `O=C1NC(c2ccc([N+](=O)[O-])cc2)=CCN1c1ccc(O)cc1` are below 10% and 11.4 µM.
Take `O=C1NC(c2cccc([N+](=O)[O-])c2)=CCN1c1ccccc1CO`: in experiment [1], the Efficacy came out at 20.4%. The EC50 in experiment [3] was found to be 5 µM. Also, the IC50 in experiment [2] was 12 µM.
On to `COc1ccccc1N1CC=C(c2ccc([N+](=O)[O-])cc2)NC1=O`, for which the Efficacy in experiment [1] was below 10%. In addition, the IC50 in experiment [2] was found to be 11.4 µM.
As for `O=C1NC(c2cccc([N+](=O)[O-])c2)=CCN1c1cccc(I)c1`, in experiment [1], the Efficacy was 30.9%. Besides, the concentration for a half-maximal effect (EC50) in experiment [3] is 0.3 µM. Also, the concentration for half-maximal inhibition (IC50) in experiment [2] stood at 0.47 µM.
As for `COc1ccc(N2CC=C(c3cccc([N+](=O)[O-])c3)NC2=O)cc1`, the Efficacy in experiment [1] was below 10%. For the same compound, the half-maximal inhibitory concentration (IC50) in experiment [2] was determined as 40 µM.
As for `O=C(/C=C/c1cccc([N+](=O)[O-])c1)Nc1ccccc1Cl`, the figures for the IC50 in experiment [2] and in experiment [4] were 1.7 µM and above 10 µM, respectively.
In the case of `O=C1NC2=C(CCc3ccc([N+](=O)[O-])cc32)CN1c1ccccc1O`, the Efficacy in experiment [1] is below 10%. For the same compound, the IC50 in experiment [2] amounted to 18.1 µM.
On to `O=C(/C=C/c1cccc([N+](=O)[O-])c1)Nc1cccc(Br)c1`, for which the IC50 in experiment [2] was 0.14 µM; in experiment [4], 2.5 µM.
For `CC(C)c1cccc(NC(=O)/C=C/c2cccc([N+](=O)[O-])c2)c1` the same measures were 0.17 µM and 4.1 µM.
Turning to `CCNC(=O)c1ccccc1N1CC=C(c2cccc([N+](=O)[O-])c2)NC1=O`, the Efficacy in experiment [1] is below 10%. Moreover, the IC50 in experiment [2] came to 22 µM.
With `CC1=C(c2cccc([N+](=O)[O-])c2)NC(=O)N(c2ccccc2O)C1`, the Efficacy in experiment [1] is 10.8%. The EC50 in experiment [3] is above 10 µM. The 50% inhibitory concentration (IC50) in experiment [2] was 14.3 µM.
Consider `O=C(/C=C/c1cccc([N+](=O)[O-])c1)Nc1cccc(CO)c1`, for which the IC50 in experiment [2] is 6.5 µM; in experiment [4] it was 6.1 µM.
As for `O=C(/C=C/c1cccc([N+](=O)[O-])c1)Nc1ccccc1O`, the IC50 was 1.9 µM in experiment [2] and above 10 µM in experiment [4].
As to `COc1cccc(N2CC=C(c3cccc([N+](=O)[O-])c3)N(C)C2=O)c1`, the Efficacy in experiment [1] is below 10%. The IC50 in experiment [2] worked out at 68.4 µM.
Take `O=C(/C=C/c1cccc([N+](=O)[O-])c1)Nc1ccccc1CO`: the IC50 in experiment [2] and in experiment [4] was above 10 µM in each case.
Turning to `O=C1NC(c2cccc([N+](=O)[O-])c2)=CCN1c1ccc(O)cc1`, the Efficacy in experiment [1] is below 10%. The concentration for half-maximal inhibition (IC50) in experiment [2] was determined as 11.3 µM.
For `CS(=O)(=O)Nc1cccc(N2CC=C(c3cccc([N+](=O)[O-])c3)NC2=O)c1`, in experiment [1], the Efficacy is below 10%. Further, the IC50 in experiment [2] came out at 46.4 µM.
For the compound `O=C(CCc1cccc([N+](=O)[O-])c1)Nc1cccc(I)c1`, the results for the IC50 in experiment [2] and in experiment [4] were 0.43 µM and 4.3 µM, respectively.
For `CC(C)(C)c1cccc(NC(=O)/C=C/c2cccc([N+](=O)[O-])c2)c1` the same measures were 0.6 µM and above 10 µM.
Consider `Cc1cccc(NC(=O)/C=C/c2cccc([N+](=O)[O-])c2)c1`, for which the IC50 is 0.4 µM in experiment [2] and above 10 µM in experiment [4].

The values are drawn from ChEMBL document CHEMBL3421598, “Structure-activity relationships of the prototypical TRPM8 agonist icilin” (Bioorg Med Chem Lett, 2015).
